Our source for the TGI values is PubChem BioAssay (NCI).

One may read the TGI as the concentration at which net growth stops. A low value points to more potent growth arrest.

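Where inhibition never reached the appropriate level, the endpoint shown equals the highest concentration tested. Otherwise, values were interpolated linearly from a five-concentration, 48-hour dose response in 96-well plates. At the TGI there is no net growth.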 Some results are limits rather than exact numbers.

Among the test systems are LOX IMVI melanoma; SK-OV-3 ovarian; CAKI-1 renal; ACHN renal; SNB-19 CNS; MCF7 breast; SK-MEL-2 melanoma; SNB-75 CNS; NCI-H226 lung; NCI-H522 lung.
Holding throughout (assay): DTP human tumour cell line panel, 48 h

For `COc1ccc(N2C(=O)C3ON(C(C(N)=O)c4ccccc4)C(c4ccc(-c5ccccc5)cc4)C3C2=O)cc1` (centres undefined), the TGI in the assay with LOX IMVI melanoma, in the assay with SK-OV-3 ovarian, in the assay with CAKI-1 renal, in the assay on ACHN renal, in the assay with SNB-19 CNS and in the assay with MCF7 breast was > 50 µM in each case. Besides, the TGI in the assay with SK-MEL-2 melanoma, with SNB-75 CNS, in the assay on NCI-H226 lung and with NCI-H522 lung was > 50 µM in each case.
As for `CC1(C2(C)OC(=O)c3ccccc32)OC(=O)c2ccccc21` (centres undefined), the TGI with LOX IMVI melanoma, with SK-OV-3 ovarian, in the assay on CAKI-1 renal, with ACHN renal, in the assay with SNB-19 CNS and in the assay on MCF7 breast was > 100 µM each time. Besides, the TGI in the assay on SK-MEL-2 melanoma, with SNB-75 CNS, in the assay on NCI-H226 lung and with NCI-H522 lung was > 100 µM each time.
Take `CCCCC(=O)Nc1ccc2cc(C(=O)OC)c(ON3C(=O)c4ccccc4C3=O)nc2n1`: the TGI is > 100 µM in the assay on LOX IMVI melanoma; > 100 µM with SK-OV-3 ovarian; 52.4 µM with CAKI-1 renal; > 100 µM in the assay with ACHN renal; > 100 µM with SNB-19 CNS; > 100 µM in the assay on MCF7 breast. For the same molecule, the TGI in the assay on SK-MEL-2 melanoma was > 100 µM; with SNB-75 CNS it was 88.2 µM; in the assay with NCI-H226 lung, 60.2 µM; in the assay on NCI-H522 lung, 58.5 µM.
For the molecule `O=C1C(/C=C/c2ccc(Cl)cc2)=NNC2N1N=C1NC(=O)C3(NN12)c1ccccc1-c1ccccc13` (centres undefined), the TGI with LOX IMVI melanoma, in the assay on SK-OV-3 ovarian, in the assay on CAKI-1 renal, in the assay with ACHN renal, in the assay with SNB-19 CNS and in the assay with MCF7 breast was > 100 µM throughout. The TGI with SK-MEL-2 melanoma, in the assay with SNB-75 CNS, with NCI-H226 lung and in the assay on NCI-H522 lung was > 100 µM in each case.
In the case of `COc1ccc(C2SCC(=O)N2c2ccc(-n3c(-c4ccccc4)nc4ccccc4c3=O)cc2)cc1OC` (centres undefined), the TGI in the assay on LOX IMVI melanoma, with SK-OV-3 ovarian, in the assay with CAKI-1 renal, with ACHN renal, in the assay on SNB-19 CNS and in the assay on MCF7 breast was > 100 µM each time. The TGI was > 100 µM in the assay with SK-MEL-2 melanoma, 51.7 µM with SNB-75 CNS, > 100 µM in the assay with NCI-H226 lung and > 100 µM in the assay with NCI-H522 lung.
As to `O=C(CC(=O)N1N=C(N2CCCCC2)CC1c1ccccc1)Nc1ccc(Cl)cc1` (centres undefined), the TGI in the assay with LOX IMVI melanoma, in the assay with CAKI-1 renal, with ACHN renal, with SNB-19 CNS, in the assay on MCF7 breast and in the assay on SK-MEL-2 melanoma was > 100 µM in each case. Further, the TGI with SNB-75 CNS, in the assay with NCI-H226 lung and with NCI-H522 lung was > 100 µM in each case.
Turning to `COc1cc(CCCOC(=O)/C=C/c2ccc(O)c(O)c2)cc(O)c1O`, the TGI was 45.6 µM in the assay on LOX IMVI melanoma; > 100 µM with SK-OV-3 ovarian; > 100 µM with CAKI-1 renal; > 100 µM in the assay with ACHN renal; > 100 µM with SNB-19 CNS; 69.4 µM with MCF7 breast. Further, the TGI was > 100 µM in the assay with SK-MEL-2 melanoma, > 100 µM with SNB-75 CNS, > 100 µM in the assay on NCI-H226 lung and 29.2 µM with NCI-H522 lung.
Consider `CC(C)NC(=O)CN1CCN(C2=CC(=O)c3c(O)ccc(O)c3C2=O)CC1`, for which the TGI with LOX IMVI melanoma was 19.6 µM; with SK-OV-3 ovarian, 77.1 µM; in the assay on CAKI-1 renal it was > 60.7 µM; in the assay with ACHN renal it was 54.1 µM; in the assay on SNB-19 CNS it was 37.2 µM; with MCF7 breast, 9.35 µM. Also, the TGI was 34.3 µM in the assay on SK-MEL-2 melanoma, 32.6 µM in the assay with SNB-75 CNS, > 68.8 µM in the assay with NCI-H226 lung and 34.5 µM in the assay with NCI-H522 lung.
As to `COCC1OC(OC2C3=C(C(C)C)CCC3(C)/C=C3\C(CCC3(O)COC)C(C)C2O)C(O)C2OC3OC12OC3(C)C1CO1` (centres undefined), the TGI with LOX IMVI melanoma is 99.3 µM; with SK-OV-3 ovarian, > 100 µM; in the assay on CAKI-1 renal, 99.7 µM; in the assay on ACHN renal it was > 100 µM; with SNB-19 CNS, > 100 µM; with MCF7 breast, > 100 µM. The TGI in the assay on SK-MEL-2 melanoma was > 100 µM; with SNB-75 CNS, 92.7 µM; in the assay on NCI-H226 lung, 43.1 µM; with NCI-H522 lung, 82.4 µM.
Take `CC1=C2C(=O)[C@H]3[C@@H](CC=C4C[C@@H](O)CC[C@@]43C)[C@@H]2CC[C@]12O[C@@H]1C[C@H](C)CN[C@H]1[C@H]2C`: the concentration for total growth inhibition (TGI) was > 58.2 µM in the assay on LOX IMVI melanoma; > 57.3 µM in the assay with SK-OV-3 ovarian; > 59.2 µM in the assay with CAKI-1 renal; > 56.3 µM in the assay on ACHN renal; > 57.6 µM in the assay with SNB-19 CNS; > 100 µM in the assay on MCF7 breast. The TGI in the assay on SK-MEL-2 melanoma is > 72.5 µM; in the assay on SNB-75 CNS, > 54.4 µM; in the assay on NCI-H226 lung it was > 61 µM; in the assay on NCI-H522 lung, > 59.6 µM.
For the molecule `C[C@]12CC[C@@H]3c4cc(OCC(F)(F)F)c(O)cc4C(=O)C[C@H]3[C@@H]1CC[C@@H]2O`, the TGI with LOX IMVI melanoma was > 100 µM; in the assay on SK-OV-3 ovarian, 47.5 µM; in the assay with CAKI-1 renal it was > 100 µM; with ACHN renal, > 100 µM; with SNB-19 CNS, > 79.5 µM; with MCF7 breast it was > 100 µM. Besides, the TGI with SK-MEL-2 melanoma was > 26.1 µM; in the assay with SNB-75 CNS it was 65.7 µM; with NCI-H226 lung, > 100 µM; in the assay with NCI-H522 lung, > 100 µM.
Take `COc1ccc2nc3ccc(OC)cc3c(S(=O)(=O)Cc3ccc([N+](=O)[O-])cc3)c2c1`: the TGI in the assay with LOX IMVI melanoma, in the assay with SK-OV-3 ovarian, in the assay on CAKI-1 renal, in the assay with ACHN renal, in the assay on SNB-19 CNS and in the assay with MCF7 breast was > 100 µM each time. The TGI in the assay with SK-MEL-2 melanoma, in the assay with SNB-75 CNS, in the assay with NCI-H226 lung and in the assay with NCI-H522 lung was > 100 µM throughout.
On to `CCCc1cc(=O)oc2c3c(c4c(c12)OC(C)(C)C=C4)O[C@@H](C)[C@H](C)C3=O`, for which the TGI is 37.3 µM in the assay with LOX IMVI melanoma; 73.9 µM in the assay with CAKI-1 renal; 24.9 µM with ACHN renal; 37.5 µM in the assay on SNB-19 CNS; 46.3 µM in the assay on MCF7 breast; 30.7 µM with SNB-75 CNS. For the same molecule, the TGI with NCI-H226 lung was determined as 41.6 µM; in the assay on NCI-H522 lung, 29.8 µM.
On to `COC(=O)C1(Cc2ccc3c(c2)CCC3)Cc2ccc3c(c2C1O)CCC3` (centres undefined), for which the TGI was 26.2 µM with LOX IMVI melanoma; 51.8 µM in the assay on SK-OV-3 ovarian; 29.4 µM with CAKI-1 renal; 26.7 µM in the assay on ACHN renal; 26.9 µM with MCF7 breast; > 100 µM in the assay with SNB-75 CNS. The TGI was 45 µM in the assay with NCI-H226 lung and 25.6 µM with NCI-H522 lung.
Take `CCOc1ccc(/C(O)=C/c2nc3ccccc3nc2/C=C(\O)c2ccc(OCC)cc2)cc1`: the TGI with LOX IMVI melanoma, with SK-OV-3 ovarian, in the assay on CAKI-1 renal, in the assay with ACHN renal, in the assay on SNB-19 CNS and in the assay on MCF7 breast was > 100 µM in each case. The TGI in the assay on SK-MEL-2 melanoma, with NCI-H226 lung and in the assay on NCI-H522 lung was > 100 µM each time.
Consider `CC(N)C(C)Cc1ccccc1` (centres undefined), for which the TGI in the assay on LOX IMVI melanoma, in the assay with SK-OV-3 ovarian, in the assay with CAKI-1 renal, in the assay with ACHN renal, in the assay on SNB-19 CNS and with MCF7 breast was > 100 µM each time. Also, the TGI in the assay on SNB-75 CNS, in the assay with NCI-H226 lung and in the assay with NCI-H522 lung was > 100 µM in each case.
Turning to `CCc1n[nH]c(=O)n1/N=C/c1ccccc1Cl`, the TGI in the assay with LOX IMVI melanoma, with SK-OV-3 ovarian, in the assay on CAKI-1 renal, in the assay on ACHN renal, with SNB-19 CNS and in the assay on MCF7 breast was > 100 µM in each case. Also, the TGI in the assay with SK-MEL-2 melanoma, with NCI-H226 lung and with NCI-H522 lung was > 100 µM throughout.
For the molecule `O=c1[nH]c(=O)n(C2CC(O)C(CO)O2)cc1OCCCc1ccccc1` (centres undefined), the TGI in the assay with LOX IMVI melanoma, in the assay on SK-OV-3 ovarian, in the assay with CAKI-1 renal, in the assay with ACHN renal, in the assay with SNB-19 CNS and in the assay with MCF7 breast was > 100 µM throughout. Moreover, the TGI with SNB-75 CNS, in the assay on NCI-H226 lung and in the assay with NCI-H522 lung was > 100 µM each time.
In the case of `O=c1cc(N2CCOCC2)[nH]c(=O)n1-c1cccc(C(F)(F)F)c1`, the TGI in the assay on LOX IMVI melanoma, with SK-OV-3 ovarian, in the assay with CAKI-1 renal, with ACHN renal, in the assay on MCF7 breast and with SK-MEL-2 melanoma was > 100 µM in each case. The TGI in the assay with SNB-75 CNS, in the assay with NCI-H226 lung and in the assay on NCI-H522 lung was > 100 µM in each case.
As for `O=[N+]([O-])c1ccc(C2=NOC(c3ccccc3F)N2C23CC4CC(CC(C4)C2)C3)cc1` (centres undefined), the TGI with LOX IMVI melanoma, in the assay on SK-OV-3 ovarian, in the assay on CAKI-1 renal, with ACHN renal, in the assay with MCF7 breast and with SK-MEL-2 melanoma was > 100 µM throughout. Further, the TGI in the assay with SNB-75 CNS, in the assay on NCI-H226 lung and with NCI-H522 lung was > 100 µM each time.
